Source: patent US20050107447A1, “Novel lysophosphatidic acid receptor agonists and antagonists” (priority 2003, published 2005)
Values joined by “and” are separate entries in the source; they are usually repeats but may differ in a detail not shown here. Equal entries are not always repeated. “Also recorded” adds a separate entry of the source.

What was measured:
LPA2 = LPA2 (Homo sapiens, UniProt Q9HBW0); assay: GTP[γ35S] binding, LPA2 transfected HEK293T cell membranes; format: biochemical; set-up: expressed in transfected cells; host or cells: HEK293T (transient, calcium phosphate); conditions: for EC50: agonist, GTP[γ35S] binding
Experimental: (§1) The appropriate receptor plasmid DNA (encoding mouse LPA1, human LPA2 or human LPA3) was mixed with equal amounts of expression plasmids (pcDNA3) encoding a mutated (C351F) rat Gi2a, cow β1, and γ2 proteins and these DNAs were used to transfect monolayers of HEK293T cells (where ‘T’ indicates expression of the SV-40 virus large T antigen) using the calcium phosphate precipitate method. After about 60 hours, cells were harvested, membranes were prepared, aliquoted and stored at −70° C. until use.
(§2) The GTP[35 γS] assay was performed as described by us previously. Membranes containing 5 ug of protein were incubated in 0.1 ml GTP-binding buffer (in mM: HEPES 50, NaCl 100, MgCl2 10, pH7.5) containing […], […], 0.1 nM GTP[35 γS] (1200 Ci/mmol), and indicated lipid(s) for 30 minutes at 30° C. Samples were analyzed for membrane-bound radionuclide using a Brandel Cell Harvester (Gaithersburg, Md.).
(§3) The X-intercept of the linear transformation is equal to the inverse log of the κ1.
(§4) Membranes prepared from these cells are used to measure GTPγ[^35S] binding as a function of test compound concentration. The resulting dose-response curves provide relative potency (EC50) and efficacy, (Emax) for the test compounds.

LPA3 = target: T1, LPA3 (Homo sapiens, UniProt Q9UBY5); assay: GTP[γ35S] binding, LPA3 transfected HEK293T cell membranes; format: biochemical; set-up: expressed in transfected cells; host or cells: HEK293T (transient, calcium phosphate); conditions: for EC50: agonist, GTP[γ35S] binding
T1 sequence (Q9UBY5 1-353): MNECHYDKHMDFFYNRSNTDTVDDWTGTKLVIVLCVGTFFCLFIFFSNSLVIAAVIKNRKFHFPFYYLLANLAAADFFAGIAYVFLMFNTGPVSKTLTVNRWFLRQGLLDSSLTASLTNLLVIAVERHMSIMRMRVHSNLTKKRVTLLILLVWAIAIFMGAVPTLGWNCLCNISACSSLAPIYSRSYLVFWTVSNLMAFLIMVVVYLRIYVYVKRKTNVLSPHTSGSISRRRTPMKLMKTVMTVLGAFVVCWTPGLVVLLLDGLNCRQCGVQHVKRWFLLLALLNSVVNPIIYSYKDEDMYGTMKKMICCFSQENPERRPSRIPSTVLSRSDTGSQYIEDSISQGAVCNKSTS
Experimental: as §1, §2, §3, §4

LPA1 [1] = target: T2, LPA1 (Mus musculus, UniProt P61793); assay: GTP[γ35S] binding, LPA1 transfected HEK293T (or RH7777) cell membranes; format: biochemical; set-up: expressed in transfected cells; host or cells: HEK293T (transient, with G protein plasmids); some results from RH7777 rat hepatoma membranes transfected with LPA1 DNA only; conditions: for EC50: agonist, GTP[γ35S] binding; for Potency at LPA1 relative to LPA: vs 1-oleoyl LPA
Experimental: as §1, §2, §3, §4

LPA receptors = assay: Whole cell assays of calcium mobilization or inhibition of cAMP accumulation (agonist activity); format: cell-based
Experimental: (§5) Assays for cAMP accumulation were conducted on populations of 5×10^5 cells stimulated with […] in the presence of the phosphodiesterase inhibitor isomethylbutylxanthine (IBMX) for 15 minutes at 30° C. cAMP was measured by automated radioimmunoassay.
A FLIPR™ (Molecular Devices, Inc.) was used to measure intracellular calcium in A431 and HEK293T cells. A431 cells were seeded (−50,000 cells/well) in 96-well clear bottom black microplates (Corning Costar Corp., Cambridge, Mass.) and left overnight in CO2 incubator at 37° C. HEK293T cells were treated likewise, but seeded onto poly D-lysine coated microplates (Becton Dickinson, Franklin Lakes, N.J.). A431 cells were dye-loaded with 4 μM Fluo-3 AM ester (Molecular Probes Inc., Eugene, Oreg.) in a loading buffer (1×HBSS buffer, pH 7.4, containing 20 mM HEPES, 0.1% BSA, and 2.5 mM probenecid) for 1 hour at 37° C. Cells were then washed four times with the loading buffer and exposed in the FLIPR™ to sets of compounds. HEK293T cells were loaded with 2 μM Fluo-4 AM ester (Molecular Probes Inc., Eugene, Oreg.) in the same loading buffer without probenecid for 30 minutes and washed four times before being exposed to compounds in the FLIPR™. […]
(§6) The same activity was determined with human LPA1 using a recombinant baculovirus-infected insect Sf9 cell membrane preparation.

human LPA1 = target: T3, human LPA1 (Homo sapiens, UniProt Q92633); assay: GTP[γ35S] binding, recombinant baculovirus-infected insect Sf9 cell membrane preparation; format: biochemical; conditions: Sf9 membranes
T3 construct: expressed in transfected cells; host or cells: Sf9 insect cells, recombinant baculovirus
Experimental: as §6

[2] = tested on: HEK293T cells (express LPA1 and LPA3, not LPA2); assay: Block of LPA-induced rises in free intracellular calcium in HEK293T cells (FLIPR); format: cell-based; conditions: specificity control
Excerpt: as §3

[3] = tested on: renal injury following ischemia-reperfusion (IR); assay: Renal ischemia-reperfusion model; format: in vivo, mouse; conditions: for Plasma creatinine: 24 hrs of reperfusion, n=4
Experimental: C57BL6 mice (20 gm, 8 wks of age) were used for all studies. The surgical protocol of renal IR has been previously described (Okusa et al., 1999. Am. J. Physiol. (Renal Physiol.) 277: F404-412; Okusa, et al., 2000 Am. J. Physiol. (Renal Physiol.) 279; F809-F818, and Okusa et al., 2001 Kidney Int. 59:2114-2125). For the injury protocol, bilateral flank incisions were made under anesthesia with a regimen that consists of ketamine (100 mg/kg, ip.), xylazine (10 mg/kg, ip.) and acepromazine (1 mg/kg, im.). Renal pedicles were exposed and cross-clamped for 27-32 min. Kidneys were examined for immediate reperfusion following clamp removal. Wounds were closed and mice were returned to cages. […] The mice were sacrificed and the kidneys harvested at 1, 4, 8, 24, 48 hrs, 5 and 7 days. […] Mice were sacrificed following 24 hrs of reperfusion and plasma was obtained for BUN and creatinine.

LPA1 [4] = target: T2, LPA1; assay: cAMP accumulation in RH7777 cells stably expressing LPA1; format: cell-based; set-up: expressed in transfected cells; conditions: RH7777 cells stably expressing LPA1
Experimental: as §5
Rat hepatoma RH7777 cell monolayers were transfected with the mLPA1 plasmid DNA using the calcium phosphate precipitate method and clonal populations expressing the neomycin phosphotransferase gene were selected by addition of geneticin (G418) to the culture media. The RH7777 cells were grown in monolayers at 37° C. in a 5% CO02/95% air atmosphere in growth media consisting of: 90% MEM, 10% fetal bovine serum, 2 mM glutamine and 1 mM sodium pyruvate.
wls-b8L and the other phosphonates were also tested also for activity in three whole cell assays. […] Finally, the activity of wls-b8L in activating a chloride conductance in Xenopus laevis ooctyes was measured.

Sequence of LPA2 (Q9HBW0 whole entry): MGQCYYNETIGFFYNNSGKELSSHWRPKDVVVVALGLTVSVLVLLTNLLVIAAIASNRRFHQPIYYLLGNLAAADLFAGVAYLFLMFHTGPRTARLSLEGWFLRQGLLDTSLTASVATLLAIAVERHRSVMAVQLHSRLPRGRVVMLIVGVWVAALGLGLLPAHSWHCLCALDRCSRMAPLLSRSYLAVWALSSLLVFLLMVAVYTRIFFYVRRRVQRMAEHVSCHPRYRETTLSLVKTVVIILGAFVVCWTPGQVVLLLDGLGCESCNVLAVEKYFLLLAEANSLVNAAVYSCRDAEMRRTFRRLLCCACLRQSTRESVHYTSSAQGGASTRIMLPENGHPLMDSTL
T2 sequence (P61793 whole entry): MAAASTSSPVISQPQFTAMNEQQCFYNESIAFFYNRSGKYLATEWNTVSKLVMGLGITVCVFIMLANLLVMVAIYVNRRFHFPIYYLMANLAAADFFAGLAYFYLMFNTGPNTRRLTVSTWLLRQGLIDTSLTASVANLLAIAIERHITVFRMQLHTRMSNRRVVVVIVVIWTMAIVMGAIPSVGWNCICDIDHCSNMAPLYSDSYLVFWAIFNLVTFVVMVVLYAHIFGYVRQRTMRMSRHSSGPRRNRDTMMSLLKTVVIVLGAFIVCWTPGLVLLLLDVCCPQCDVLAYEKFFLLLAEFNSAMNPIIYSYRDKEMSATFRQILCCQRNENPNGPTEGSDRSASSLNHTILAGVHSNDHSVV
T3 sequence (Q92633 whole entry): as the sequence (P61793 whole entry) above, with A4I, S8I, Q22P, Y40H, V61I, D193E, H194N, V269I, N331S, N335T counted along it

| Molecule | EC50 (LPA2) | EC50 (LPA3) | Emax (LPA2) | Emax (LPA3) | Emax (LPA1 [1]) | EC50 (LPA1 [1]) | other results |
| --- | --- | --- | --- | --- | --- | --- | --- |
| 1-acyl, 2-hydroxyl-sn-glycerol-3-phosphate [LPA, reference compound] | 0.0068 µM | 0.263 µM | – | – | – | – | LPA3 Emax (LPA3; LPA = 100): 100 |
| CCCCCCCC/C=C\CCCCCCCC(=O)N[C@@H](CN)COP(=O)(O)O [VPC12048] | > 5 µM | > 5 µM | 36.4% | 3.8% | 9.4% | > 5 µM | – |
| CCCCCCCC/C=C\CCCCCCCC(=O)N[C@@H](COP(=O)(O)O)Cc1ccccc1 [VPC12084] | 0.268 µM | 0.351 µM | 97% | 78.7% | 23.7% | 0.0384 µM | Agonist activity in whole cell assays (LPA receptors): appreciable agonist activity; Antagonism of LPA-induced GTP[γ35S] binding at LPA1 (LPA1 [1]): did block LPA activity |
| CCCCCCCC/C=C\CCCCCCCC(=O)N[C@H](C)COP(=O)(O)O [VPC12086] | 0.0183 µM | 0.113 µM | 95.2% | 93.4% | 108% | 0.0034 µM | Potency at LPA1 relative to LPA (LPA1 [1]): more potent than 1-oleoyl LPA; also recorded: more potent and efficacious than LPA |
| CCCCCCCC/C=C\CCCCCCCC(=O)N[C@@H](COP(=O)(O)O)C(C)C [VPC12098] | 0.799 µM | 3.81 µM | 85.8% | 45.3% | 51% | 0.0738 µM | – |
| CCCCCCCC/C=C\CCCCCCCC(=O)N[C@@H](C)COP(=O)(O)O [VPC12101] | > 5 µM | > 5 µM | 6.9% | 9.7% | 48.1% | 2.9 µM | – |
| CCCCCCCC/C=C\CCCCCCCC(=O)N[C@H](CC)COP(=O)(O)O [VPC12109] | 0.162 µM | 1.08 µM | 92.6% | 83.5% | 66.8% | 0.0358 µM | – |
| CCCCCCCC/C=C\CCCCCCCC(=O)N[C@H](COP(=O)(O)O)Cc1ccc(OCc2ccccc2)cc1 [VPC12249] | – | – | – | – | – | – | Antagonist activity at human LPA1 (human LPA1): same activity; Antagonism of ATP-evoked calcium transients [2]: lack of antagonism; Agonist activity in whole cell assays (LPA receptors): completely devoid of agonist activity; Plasma creatinine ([3]; 0.01 mg/kg/2 hrs): 1.06±0.25; H and E sections, tissue preservation ([3]; 1 mg/kg/2 hr): marked degree of tissue preservation; Plasma creatinine ([3]; 1.0 mg/kg/2 hrs): 0.31±0.4; Block of LPA1-mediated inhibition of forskolin-induced cAMP increase (LPA1 [4]): inhibited; Antagonism of LPA-induced GTP[γ35S] binding at LPA2 (LPA2): lack of antagonist activity; Antagonism of LPA-induced GTP[γ35S] binding at LPA3 (LPA3): surmountable antagonist; Ki (LPA3; Schild regression, block of LPA-induced GTP[γ35S] binding): 0.428 µM and ~0.425 µM |
| CCCCCCCC/C=C\CCCCCCCC(=O)N[C@@H](COP(=O)(O)O)Cc1ccc(OCc2ccc(CCCCC)cc2)cc1 [VPC31162] | – | – | – | – | – | – | Antagonism of LPA-induced GTP[γ35S] binding at LPA2 (LPA2): antagonist activity; Agonist activity/efficacy at LPA3 (LPA3; compared to LPA): agonist; Agonist activity/efficacy at LPA1 (LPA1 [1]; compared to LPA): agonist |

The next lines start with results.

| EC50 (LPA2) | EC50 (LPA3) | Emax (LPA2) | Emax (LPA3) | Emax (LPA1 [1]) | EC50 (LPA1 [1]) | Molecule | other results |
| --- | --- | --- | --- | --- | --- | --- | --- |
| 4.28 µM | 4.98 µM | 85.6% | 89.3% | 62.3% | 1.58 µM | CCCCCCCC/C=C\CCCCCCCC(=O)N[C@@H](CC)COP(=O)(O)O [VPC12115] | – |
| 0.0503 µM | 0.684 µM | 103% | 103% | 98.7% | 0.0049 µM | CCCCCCCC/C=C\CCCCCCCC(=O)N[C@H](CN)COP(=O)(O)O [VPC12178] | Potency at LPA1 relative to LPA (LPA1 [1]): more potent than 1-oleoyl LPA |
| > 5 µM | > 5 µM | – | – | – | > 5 µM | CCCCCCCC/C=C\CCCCCCCC(=O)N[C@H](COP(=O)(O)O)Cc1ccccc1 [VPC12255] | – |
| 0.0292 µM | 1.48 µM | 91.3% | 84.4% | 66.2% | 0.0185 µM | CCCCCCCC/C=C\CCCCCCCC(=O)N[C@@H](COP(=O)(O)O)C(=O)OC [VPC31139] | – |
| 0.116 µM | 0.322 µM | 105% | 107% | 161% | 0.0079 µM | CCCCCCCC/C=C\CCCCCCCC(=O)N[C@H](CO)COP(=O)(O)O [VPC31143] | Potency at LPA1 relative to LPA (LPA1 [1]): more potent than 1-oleoyl LPA |
| 2.64 µM | 4.35 µM | 77.3% | – | 91.1% | > 5 µM | CCCCCCCC/C=C\CCCCCCCC(=O)N[C@@H](CO)COP(=O)(O)O [VPC31144] | – |
| 3.46 µM | > 5 µM | 60.2% | 3.8% | 50.6% | 1.21 µM | CCCCCCCC/C=C\CCCCCCCC(=O)N[C@H](COP(=O)(O)O)C(=O)OC [VPC31180] | – |
| > 5 µM | > 5 µM | 27.6% | 27.7% | 14.8% | > 5 µM | CCCCCCCC/C=C\CCCCCCCC(=O)N[C@H](COP(=O)(O)O)C(C)C [compound 40105] | – |
